From patent publication EP0236230A1, “Aqueous suspensions containing at least one compound chosen from 6,7-dihydrobenzoquinolizine carboxylic acids, and their use in the treatment of plants” (RIKER LABORATORIES, INC., priority 1986, dated 1987)
In brackets after ≈: the same amount, converted by molar mass.

Assays:
[1] = physchem; conditions: water
Text: Une deuxième solution consiste à diminuer la solubilité du produit.

[2] = test system: XANTHOMONAS CYNARAE; test: Minimal inhibitory concentration (CMI) at varying pH; format: cell-based
Text: (§1) Une autre conséquence inattendue de la valeur du pH est l'influence sur l'activité antibactérienne elle-même. Selon l'invention, c'est en milieu pH acide que l'on obtient la meilleure activité antibactérienne.
(§2) A titre d'exemple, on donne ci-après les concentrations minimales inhibitrices (CMI) obtenues vis-à-vis de quelques bactéries phytopathogènes en faisant varier le pH.

[3] = test system: ERWINIA AMYLOVORA; test: as above; format: cell-based
Text: as §1, §2

[4] = test system: PSEUDOMONAS SYRINGAE; test: as above; format: cell-based
Text: as §1, §2

[5] = test system: XANTHOMONAS PRUNI; test: as above; format: cell-based
Text: as §1, §2

[6] = test system: PSEUDOMONAS VIRIDIFLAVA; test: as above; format: cell-based
Text: as §1, §2

For `CC1CCc2cc(F)cc3c(=O)c(C(=O)O)cn1c23` (centres unmarked) [Fluméquine, acide [1H-5H] dihydro-6,7 fluoro-9 méthyl-5 oxo-1 benzo [i,j] quinolizine carboxylique-2], which solubility ([1]; pH 5, water) is on record?
The solubility was roughly 100 µg/mL (≈ 383 µM).

And the solubility ([1]; pH 7, water)?
The solubility was 300 to 400 µg/mL (≈ 1150 to 1530 µM).

What about the “concentrations minimales inhibitrices (CMI)” value ([2]; pH 5) of the same molecule?
Its value is 0,5.

And the “concentrations minimales inhibitrices (CMI)” value ([2]; pH 6,5)?
The value was 1.

What about the “concentrations minimales inhibitrices (CMI)” value ([2]; pH 7,4) of the same molecule?
The value was 2.

What about the “concentrations minimales inhibitrices (CMI)” value ([3]; pH 5) of the same molecule?
Its value is 0,1.

What about the “concentrations minimales inhibitrices (CMI)” value ([3]; pH 6,5) of the same molecule?
Its value is 0,5.

What about the “concentrations minimales inhibitrices (CMI)” value ([3]; pH 7,4) of the same molecule?
Its value is 1.

What about the “concentrations minimales inhibitrices (CMI)” value ([4]; pH 5) of the same molecule?
Its value is 0,5.

And the “concentrations minimales inhibitrices (CMI)” value ([4]; pH 6,5)?
Its value is 2.

What about the “concentrations minimales inhibitrices (CMI)” value ([4]; pH 7,4) of the same molecule?
The value was 4.

And the “concentrations minimales inhibitrices (CMI)” value ([5]; pH 5)?
The value was 0,25.

What about the “concentrations minimales inhibitrices (CMI)” value ([5]; pH 6,5) of the same molecule?
Its value is 1.

What about the “concentrations minimales inhibitrices (CMI)” value ([5]; pH 7,4) of the same molecule?
The value was 2.

What about the “concentrations minimales inhibitrices (CMI)” value ([6]; pH 5) of the same molecule?
The value was 1.

What about the “concentrations minimales inhibitrices (CMI)” value ([6]; pH 6,5) of the same molecule?
The value was 2.

And the “concentrations minimales inhibitrices (CMI)” value ([6]; pH 7,4)?
Its value is 4.
